Experimental data as given in patent US20090088417A1, “VANILLOID RECEPTOR ANTAGONIST FOR PREVENTION AND TREATMENT OF DRUG DEPENDENCE AND ADDICTION” (priority 2006, published 2009).
“Also recorded” adds a separate entry of the source.

What was measured:
male ICR mouse = assay: Conditioned place preference (CPP) test, development of psychological dependence on cocaine; format: in vivo; conditions: measured on ninth day
Procedure: In the present invention, a conditioned place preference (CPP) test is used to monitor the degree of alleviation in drug dependence and addiction. The CPP system used in the present invention includes a white box, a black box and a pathway connecting the two boxes with each other. Mice are used as test animals and effects on preference/aversion are analyzed by measuring residence times of the mice in the two boxes.
Development of psychological dependence on cocaine was determined according to the CPP (conditioned place preference) test. […]
Step 1 (Basic Test): On the first day of the test, the Guillotine door between the two boxes was opened, and a male ICR mouse having a body weight of 20˜25 g made available by MJ Ltd. (Seoul) was accommodated in the CPP system so that it could move freely therein for 5 minutes. […] Then, residence times of the mouse in the two boxes were measured for 15 minutes to obtain reference values. […]
Step 3 (Test Step): On the ninth day of the test, the Guillotine door between the two boxes was opened, a pathway was provided in the middle of the boxes, and then a mouse, to which no drug was administered, was allowed to remain in the two boxes for 15 minutes. Then, residence times in the white box and in the black box were measured and compared to the values measured on the second day of the test. […]

mice [1] = assay: CPP test, recurrence of psychological dependence on cocaine after withdrawal; format: in vivo, mouse; conditions: capsazepine 10 mg/kg single-dose pretreatment + cocaine on fifteenth day after 5 days of saline; p<0.05 vs cocaine group
Procedure: The following CPP system was used to perform the test. The CPP system included two boxes, each having a dimension of 15 cm×15 cm×15 cm (width×depth×height). One of the boxes was made of white acryl sheets on three sides thereof, while the other was made of black acryl sheets on three sides thereof. […] Between the two boxes, a gray-colored pathway having a dimension of 3×3×7.5 cm was provided. Also, a Guillotine door capable of interrupting the pathway was provided. […] The test was performed under an illuminance maintained at 20 Lux.
Test animals were divided into four groups. Psychological saline was administered to the first test group (10 mice), and cocaine was administered to the remaining second test group, third test group and fourth test group (30 mice in total). On the ninth day of the test, development of a dependence on cocaine was checked, and then saline was administered alone for the subsequent 5 days to allow the mice to lose the cocaine dependence. […] Residence times in the CPP boxes were measured as described above.

mice [2] = assay: Locomotor activity, behavioral sensitization caused by cocaine (displacement from spontaneous movements); format: in vivo, mouse
Procedure: Behavioral sensitization in recurrence of psychological dependence on cocaine was determined according to the locomoter activity. See [Yoo et al. 2003, Neurosci Lett. 433, pp 37-40].
Test animals were divided into four groups as follows: physiological saline was administered to the first test group, cocaine was administered to the second test group, cocaine +2.5 mg/kg of capsazepine (pretreatment) was administered to the third test group, and cocaine +5.0 mg/kg of capsazepine (pretreatment) was administered to the fourth test group.
A locomotor box was used for the test. […] The bottom of the box was covered with a black sheet having substantially the same size as the former.
Step (1)—Basic Test: On the first day, mice were allowed to move freely in the locomotor box for 30 minutes so that they were accommodated.
After the accommodation period, 15 mg/kg of cocaine was administered to the mice via intraperitoneal injection, and then the mice were allowed to remain in the locomotor box. The displacement from spontaneous movements of the mice was measured. […] On the sixth day of the test, the drug was administered again to the mice and the displacement from spontaneous movements was measured. […] Then, displacement from spontaneous movements was measured. […]

[3] = cited from earlier work

Row | Compound | Effect on development of psychological dependence on cocaine (residence times in CPP boxes) (male ICR mouse; capsaicin 0.3 mg/kg pretreatment + cocaine, p<0.01 vs saline group) | Inhibition of development of psychological dependence on cocaine (residence times in CPP boxes) (male ICR mouse; capsazepine 2.5 and 5 mg/kg i.p., 30 minutes before cocaine 15 mg/kg i.p., p<0.05 vs cocaine group) | Inhibition of recurrence of psychological dependence on cocaine (residence times in CPP boxes) (mice [1]) | Inhibition of behavioral sensitization after drug withdrawal (displacement from spontaneous movements, 60 minutes) (mice [2]; capsazepine 5 mg/kg pretreated group, cocaine 15 mg/kg on twelfth day after withdrawal period of five days, p<0.01) | Inhibition of behavioral sensitization (displacement from spontaneous movements, 60 minutes) (mice [2]; capsazepine 5 mg/kg pretreatment + cocaine 15 mg/kg i.p. repeated, sixth day of the test, p<0.001) | Analgesic actions in an animal test ([3]; Kwak et al., 1998, Santos and Calixto, 1997) | Analgesic or anti-inflammatory effect ([3]; Perkins and Campbell, 1992)
1 | COc1cc(CNC(=O)CCCC/C=C/C(C)C)ccc1O [capsaicin] | increases dependence on cocaine; also recorded: significant increase in psychological dependence on cocaine | – | – | – | – | – | –
2 | Oc1cc2c(cc1O)CN(C(=S)NCCc1ccc(Cl)cc1)CCC2 [capsazepine] | – | significantly inhibits development of psychological dependence on cocaine | significantly inhibits recurrence of dependence on cocaine; also recorded: showed inhibition of such recurrence | completely inhibited | significantly inhibits behavioral sensitization caused by cocaine; also recorded: behavioral sensitization was inhibited | effective for providing analgesic actions | does not provide an analgesic or anti-inflammatory effect
